Experimental data as given in patent US11256170B2, “Compound, resist composition, and method for forming resist pattern using it” (Mitsubishi Gas Chemical Company, Inc., priority 2015, dated 2022).

Assay: Safe solvent solubility test of compound
Assay type: physicochemical
Settings: for Safe solvent CHN (solubility) / Safe solvent PGME (solubility) / Safe solvent PGMEA (solubility): 23° C., ultrasonic waves 30 minutes, visual; for solubility in safe solvents (in words): summary of Table 1
Protocol: The solubilities of the compound in CHN, PGME, and PGMEA were evaluated according to the following criteria utilizing the amount of dissolution in each solvent. The amount of dissolution was measured at 23° C. by precisely weighing the compound into a test tube, adding a subject solvent so as to attain a predetermined concentration, applying ultrasonic waves for 30 minutes in an ultrasonic cleaner, and visually observing the subsequent state of the fluid.
A: 5.0% by mass≤Amount of dissolution
B: 3.0% by mass≤Amount of dissolution<5.0% by mass
C: Amount of dissolution<3.0% by mass

In the case of CC(C)(C)OC(=O)OCc1ccc2ccc3c(c2c1)C(c1cccc(I)c1)c1c(ccc2ccc(COC(=O)OC(C)(C)C)cc12)O3 [Compound B-1-MeBOC], the “Safe solvent CHN (solubility)” value is reported as “A (5.0% by mass≤Amount of dissolution)”, the “Safe solvent PGME (solubility)” value is reported as “A (5.0% by mass≤Amount of dissolution)” and the “Safe solvent PGMEA (solubility)” value is reported as “A (5.0% by mass≤Amount of dissolution)”. The “solubility in safe solvents (in words)” value was “good solubility”.
With CC(C)(C)OC(=O)Oc1ccc2c3c(ccc2c1)Oc1ccc2cc(OC(=O)OC(C)(C)C)ccc2c1C3c1ccc(-c2ccccc2)cc1 [XBisN-1-BOC, reference compound] the “Safe solvent CHN (solubility)” value was “A (5.0% by mass≤Amount of dissolution)”, the “Safe solvent PGME (solubility)” value was “B (3.0% by mass≤Amount of dissolution<5.0% by mass)” and the “Safe solvent PGMEA (solubility)” value was “A (5.0% by mass≤Amount of dissolution)”. For the same molecule, the “solubility in safe solvents (in words)” value was “good solubility”.
For COc1cc(C2c3c(ccc4cc(OCC(=O)OC(C)(C)C)ccc34)Oc3ccc4cc(OCC(=O)OC(C)(C)C)ccc4c32)cc(I)c1OCC(=O)OC(C)(C)C [Compound A-3-MeBOC], the “Safe solvent CHN (solubility)” value was “A (5.0% by mass≤Amount of dissolution)”, the “Safe solvent PGME (solubility)” value was “A (5.0% by mass≤Amount of dissolution)” and the “Safe solvent PGMEA (solubility)” value was “A (5.0% by mass≤Amount of dissolution)”. For the same molecule, the “solubility in safe solvents (in words)” value was “good solubility”.
With CC(C)(C)OC(=O)Oc1ccc2c3c(ccc2c1)Oc1ccc2cc(OC(=O)OC(C)(C)C)ccc2c1C3c1cccc(I)c1 [Compound A-1-BOC] the “Safe solvent CHN (solubility)” value was “A (5.0% by mass≤Amount of dissolution)”, the “Safe solvent PGME (solubility)” value was “A (5.0% by mass≤Amount of dissolution)” and the “Safe solvent PGMEA (solubility)” value was “A (5.0% by mass≤Amount of dissolution)”. The “solubility in safe solvents (in words)” value was “good solubility”.
In the case of CC(C)(C)OC(=O)Oc1ccc2ccc3c(c2c1)C(c1cccc(I)c1)c1c(ccc2ccc(OC(=O)OC(C)(C)C)cc12)O3 [Compound B-1-BOC], the “Safe solvent CHN (solubility)” value is reported as “A (5.0% by mass≤Amount of dissolution)”, the “Safe solvent PGME (solubility)” value is reported as “A (5.0% by mass≤Amount of dissolution)” and the “Safe solvent PGMEA (solubility)” value is reported as “A (5.0% by mass≤Amount of dissolution)”. For the same molecule, the “solubility in safe solvents (in words)” value was “good solubility”.
In the case of COc1cc(C2c3c(ccc4cc(OC(=O)OC(C)(C)C)ccc34)Oc3ccc4cc(OC(=O)OC(C)(C)C)ccc4c32)cc(I)c1OC(=O)OC(C)(C)C [Compound A-3-BOC], the “Safe solvent CHN (solubility)” value is reported as “A (5.0% by mass≤Amount of dissolution)”, the “Safe solvent PGME (solubility)” value is reported as “A (5.0% by mass≤Amount of dissolution)” and the “Safe solvent PGMEA (solubility)” value is reported as “B (3.0% by mass≤Amount of dissolution<5.0% by mass)”. The “solubility in safe solvents (in words)” value was “good solubility”.
For CC(C)(C)OC(=O)COc1ccc2c3c(ccc2c1)Oc1ccc2cc(OCC(=O)OC(C)(C)C)ccc2c1C3c1cccc(I)c1 [Compound A-1-MeBOC], the “Safe solvent CHN (solubility)” value was “A (5.0% by mass≤Amount of dissolution)”, the “Safe solvent PGME (solubility)” value was “A (5.0% by mass≤Amount of dissolution)” and the “Safe solvent PGMEA (solubility)” value was “A (5.0% by mass≤Amount of dissolution)”. The “solubility in safe solvents (in words)” value was “good solubility”.
